Laboratory results reported in article PMC6193938, “Characterization of a novel AICARFT inhibitor which potently elevates ZMP and has anti-tumor activity in murine models” (Scientific Reports, 2018).

What was measured:
Assay in all cases: CEREP protein kinase assay
Format in all cases: biochemical
CHK2 = molecular target: T1, CHK2 (Homo sapiens, UniProt O96017)
T1 construct: purchased CEREP Panlabs (Eurofins)

P38a = molecular target: T2, P38a (Homo sapiens, UniProt Q16539)
T2 construct: purchased CEREP Panlabs (Eurofins)
T2 sequence (Q16539 whole entry): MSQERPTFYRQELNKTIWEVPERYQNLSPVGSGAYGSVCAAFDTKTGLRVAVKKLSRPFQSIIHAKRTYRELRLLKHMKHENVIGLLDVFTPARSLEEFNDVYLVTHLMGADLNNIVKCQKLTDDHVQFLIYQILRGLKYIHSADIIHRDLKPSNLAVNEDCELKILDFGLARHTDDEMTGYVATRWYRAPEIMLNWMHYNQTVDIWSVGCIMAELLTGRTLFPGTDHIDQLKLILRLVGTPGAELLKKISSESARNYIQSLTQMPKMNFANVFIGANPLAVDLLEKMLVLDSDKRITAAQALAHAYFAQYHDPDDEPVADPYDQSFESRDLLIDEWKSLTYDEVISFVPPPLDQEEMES

RSK3 = molecular target: T3, RSK3 (Homo sapiens, UniProt Q15349)
T3 construct: purchased CEREP Panlabs (Eurofins)
T3 sequence (Q15349 whole entry): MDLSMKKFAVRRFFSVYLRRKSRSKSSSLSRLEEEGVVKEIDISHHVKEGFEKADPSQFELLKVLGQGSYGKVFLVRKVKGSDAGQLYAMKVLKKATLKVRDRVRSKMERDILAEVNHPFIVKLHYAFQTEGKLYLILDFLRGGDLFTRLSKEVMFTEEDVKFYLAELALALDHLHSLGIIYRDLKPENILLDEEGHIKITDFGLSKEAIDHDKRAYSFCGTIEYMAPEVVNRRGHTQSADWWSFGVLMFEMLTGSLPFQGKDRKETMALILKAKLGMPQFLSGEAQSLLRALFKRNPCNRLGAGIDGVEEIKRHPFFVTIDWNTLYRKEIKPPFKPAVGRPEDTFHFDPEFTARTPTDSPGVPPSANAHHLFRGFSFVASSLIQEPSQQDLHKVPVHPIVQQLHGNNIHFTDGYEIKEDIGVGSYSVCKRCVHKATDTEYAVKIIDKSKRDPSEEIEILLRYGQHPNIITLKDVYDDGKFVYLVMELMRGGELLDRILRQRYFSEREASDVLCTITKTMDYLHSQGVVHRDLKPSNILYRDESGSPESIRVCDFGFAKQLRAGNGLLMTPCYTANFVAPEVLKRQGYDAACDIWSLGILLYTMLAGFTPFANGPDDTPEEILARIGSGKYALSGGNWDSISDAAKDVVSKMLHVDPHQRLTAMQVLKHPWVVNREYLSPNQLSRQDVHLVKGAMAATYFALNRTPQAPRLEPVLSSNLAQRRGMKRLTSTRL

ERK1 = molecular target: T4, ERK1 (Homo sapiens, UniProt P27361)
T4 construct: purchased CEREP Panlabs (Eurofins)
T4 sequence (P27361 whole entry): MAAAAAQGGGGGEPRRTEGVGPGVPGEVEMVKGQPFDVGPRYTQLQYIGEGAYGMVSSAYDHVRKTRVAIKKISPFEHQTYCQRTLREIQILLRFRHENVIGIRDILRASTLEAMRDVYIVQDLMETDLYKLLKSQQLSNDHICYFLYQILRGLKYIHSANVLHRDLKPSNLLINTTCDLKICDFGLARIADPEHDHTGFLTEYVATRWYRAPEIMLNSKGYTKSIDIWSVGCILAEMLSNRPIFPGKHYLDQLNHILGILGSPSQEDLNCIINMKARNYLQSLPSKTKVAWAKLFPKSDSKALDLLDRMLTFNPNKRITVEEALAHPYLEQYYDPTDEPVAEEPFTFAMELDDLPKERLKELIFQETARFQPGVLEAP

EPHB2 = molecular target: T5, EPHB2 (Homo sapiens, UniProt P29323)
T5 construct: purchased CEREP Panlabs (Eurofins)
T5 sequence (P29323 19-1055): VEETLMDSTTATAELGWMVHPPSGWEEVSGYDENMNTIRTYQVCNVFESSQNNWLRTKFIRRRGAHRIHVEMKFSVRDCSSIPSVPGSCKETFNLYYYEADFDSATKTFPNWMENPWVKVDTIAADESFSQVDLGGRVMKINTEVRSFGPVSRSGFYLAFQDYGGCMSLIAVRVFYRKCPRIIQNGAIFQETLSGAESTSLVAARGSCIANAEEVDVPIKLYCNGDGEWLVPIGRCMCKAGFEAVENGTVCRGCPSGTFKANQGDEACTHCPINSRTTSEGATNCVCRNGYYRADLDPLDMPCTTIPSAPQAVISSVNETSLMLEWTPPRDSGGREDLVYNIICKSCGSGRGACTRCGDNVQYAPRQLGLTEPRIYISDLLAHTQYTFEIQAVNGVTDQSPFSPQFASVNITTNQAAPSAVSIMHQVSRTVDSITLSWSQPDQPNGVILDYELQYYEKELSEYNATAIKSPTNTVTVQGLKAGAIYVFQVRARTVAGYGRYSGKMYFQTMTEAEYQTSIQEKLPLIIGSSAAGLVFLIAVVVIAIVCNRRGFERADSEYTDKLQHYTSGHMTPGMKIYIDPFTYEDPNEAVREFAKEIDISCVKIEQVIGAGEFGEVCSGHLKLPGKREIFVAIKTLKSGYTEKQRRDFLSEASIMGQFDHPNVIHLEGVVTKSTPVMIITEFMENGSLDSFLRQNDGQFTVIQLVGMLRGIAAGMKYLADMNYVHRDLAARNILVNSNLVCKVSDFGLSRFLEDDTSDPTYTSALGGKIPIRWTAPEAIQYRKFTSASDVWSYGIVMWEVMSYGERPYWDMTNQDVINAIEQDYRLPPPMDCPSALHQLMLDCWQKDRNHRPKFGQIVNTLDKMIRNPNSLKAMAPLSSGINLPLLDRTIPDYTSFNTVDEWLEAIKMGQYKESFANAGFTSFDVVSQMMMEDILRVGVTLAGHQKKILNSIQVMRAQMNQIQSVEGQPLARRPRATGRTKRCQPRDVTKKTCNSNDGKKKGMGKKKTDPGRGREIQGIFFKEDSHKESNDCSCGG

IRAK1 = molecular target: T6, IRAK1 (Homo sapiens, UniProt P51617)
T6 construct: purchased CEREP Panlabs (Eurofins)
T6 sequence (P51617 whole entry): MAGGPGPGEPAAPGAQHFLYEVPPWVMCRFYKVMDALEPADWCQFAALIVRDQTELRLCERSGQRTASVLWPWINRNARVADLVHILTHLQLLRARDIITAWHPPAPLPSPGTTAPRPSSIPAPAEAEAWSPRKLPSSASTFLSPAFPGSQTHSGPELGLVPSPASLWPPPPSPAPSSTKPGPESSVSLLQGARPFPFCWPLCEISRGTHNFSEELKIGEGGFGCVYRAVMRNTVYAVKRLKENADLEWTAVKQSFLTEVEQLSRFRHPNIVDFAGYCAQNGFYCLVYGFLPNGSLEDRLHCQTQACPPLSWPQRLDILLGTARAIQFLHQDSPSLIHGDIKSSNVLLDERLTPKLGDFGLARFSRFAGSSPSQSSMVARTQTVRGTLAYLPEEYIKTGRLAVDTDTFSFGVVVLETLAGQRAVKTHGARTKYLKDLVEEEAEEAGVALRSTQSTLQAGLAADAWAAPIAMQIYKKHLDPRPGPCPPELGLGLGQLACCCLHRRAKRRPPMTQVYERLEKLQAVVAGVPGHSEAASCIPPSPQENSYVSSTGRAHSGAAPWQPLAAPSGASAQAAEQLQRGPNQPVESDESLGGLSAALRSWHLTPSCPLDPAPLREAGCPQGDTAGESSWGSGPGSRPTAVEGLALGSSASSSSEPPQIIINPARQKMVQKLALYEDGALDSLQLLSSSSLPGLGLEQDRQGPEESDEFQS

JAK1 = molecular target: T7, JAK1 (Homo sapiens, UniProt P23458)
T7 construct: purchased CEREP Panlabs (Eurofins)
T7 sequence (P23458 whole entry): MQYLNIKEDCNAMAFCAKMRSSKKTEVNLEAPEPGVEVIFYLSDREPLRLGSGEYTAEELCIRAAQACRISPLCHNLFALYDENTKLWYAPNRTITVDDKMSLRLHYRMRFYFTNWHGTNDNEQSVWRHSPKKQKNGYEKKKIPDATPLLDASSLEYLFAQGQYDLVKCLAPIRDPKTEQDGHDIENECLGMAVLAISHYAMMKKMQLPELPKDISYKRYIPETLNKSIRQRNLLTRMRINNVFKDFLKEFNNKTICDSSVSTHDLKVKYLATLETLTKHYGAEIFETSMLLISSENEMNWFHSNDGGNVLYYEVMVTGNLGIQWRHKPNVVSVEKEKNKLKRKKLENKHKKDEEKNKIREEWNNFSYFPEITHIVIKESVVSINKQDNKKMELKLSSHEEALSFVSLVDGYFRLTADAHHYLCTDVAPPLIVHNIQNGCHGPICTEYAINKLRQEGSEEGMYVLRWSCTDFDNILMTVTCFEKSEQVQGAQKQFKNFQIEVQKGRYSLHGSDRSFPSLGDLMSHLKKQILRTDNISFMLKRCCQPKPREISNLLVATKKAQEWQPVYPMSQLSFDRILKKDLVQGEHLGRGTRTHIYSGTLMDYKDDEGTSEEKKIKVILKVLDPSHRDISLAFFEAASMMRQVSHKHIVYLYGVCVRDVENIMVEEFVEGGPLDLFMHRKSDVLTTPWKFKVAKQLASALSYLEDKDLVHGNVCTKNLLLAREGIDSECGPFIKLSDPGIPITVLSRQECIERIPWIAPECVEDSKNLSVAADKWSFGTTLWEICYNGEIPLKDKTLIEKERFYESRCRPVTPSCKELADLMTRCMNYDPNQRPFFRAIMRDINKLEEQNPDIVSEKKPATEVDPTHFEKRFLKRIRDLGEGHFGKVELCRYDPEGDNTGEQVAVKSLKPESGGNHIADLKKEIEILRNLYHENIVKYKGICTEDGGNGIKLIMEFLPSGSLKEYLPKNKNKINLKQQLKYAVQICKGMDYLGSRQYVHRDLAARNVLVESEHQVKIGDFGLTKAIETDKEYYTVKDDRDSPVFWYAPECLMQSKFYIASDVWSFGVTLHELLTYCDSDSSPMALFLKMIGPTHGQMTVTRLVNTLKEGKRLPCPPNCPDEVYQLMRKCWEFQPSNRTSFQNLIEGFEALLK

AKT3 = molecular target: T8, AKT3 (Homo sapiens, UniProt Q9Y243)
T8 construct: purchased CEREP Panlabs (Eurofins)
T8 sequence (Q9Y243 whole entry): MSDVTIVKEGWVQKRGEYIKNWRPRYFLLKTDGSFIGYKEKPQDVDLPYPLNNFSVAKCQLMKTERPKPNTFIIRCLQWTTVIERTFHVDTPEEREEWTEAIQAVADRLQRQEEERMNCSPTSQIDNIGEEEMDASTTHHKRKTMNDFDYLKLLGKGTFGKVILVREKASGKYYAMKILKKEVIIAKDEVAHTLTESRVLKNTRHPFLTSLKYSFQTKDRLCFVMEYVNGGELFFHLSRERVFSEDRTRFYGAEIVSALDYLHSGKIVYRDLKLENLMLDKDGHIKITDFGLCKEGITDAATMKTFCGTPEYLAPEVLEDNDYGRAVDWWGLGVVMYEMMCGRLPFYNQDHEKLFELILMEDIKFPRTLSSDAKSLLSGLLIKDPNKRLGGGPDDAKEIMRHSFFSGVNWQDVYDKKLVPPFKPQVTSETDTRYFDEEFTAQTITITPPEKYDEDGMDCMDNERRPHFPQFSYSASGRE

MLK1 = molecular target: T9, MLK1 (Homo sapiens, UniProt P80192)
T9 construct: purchased CEREP Panlabs (Eurofins)

DDR2 = molecular target: T10, DDR2 (Homo sapiens, UniProt Q16832)
T10 construct: purchased CEREP Panlabs (Eurofins)
T10 sequence (Q16832 22-855): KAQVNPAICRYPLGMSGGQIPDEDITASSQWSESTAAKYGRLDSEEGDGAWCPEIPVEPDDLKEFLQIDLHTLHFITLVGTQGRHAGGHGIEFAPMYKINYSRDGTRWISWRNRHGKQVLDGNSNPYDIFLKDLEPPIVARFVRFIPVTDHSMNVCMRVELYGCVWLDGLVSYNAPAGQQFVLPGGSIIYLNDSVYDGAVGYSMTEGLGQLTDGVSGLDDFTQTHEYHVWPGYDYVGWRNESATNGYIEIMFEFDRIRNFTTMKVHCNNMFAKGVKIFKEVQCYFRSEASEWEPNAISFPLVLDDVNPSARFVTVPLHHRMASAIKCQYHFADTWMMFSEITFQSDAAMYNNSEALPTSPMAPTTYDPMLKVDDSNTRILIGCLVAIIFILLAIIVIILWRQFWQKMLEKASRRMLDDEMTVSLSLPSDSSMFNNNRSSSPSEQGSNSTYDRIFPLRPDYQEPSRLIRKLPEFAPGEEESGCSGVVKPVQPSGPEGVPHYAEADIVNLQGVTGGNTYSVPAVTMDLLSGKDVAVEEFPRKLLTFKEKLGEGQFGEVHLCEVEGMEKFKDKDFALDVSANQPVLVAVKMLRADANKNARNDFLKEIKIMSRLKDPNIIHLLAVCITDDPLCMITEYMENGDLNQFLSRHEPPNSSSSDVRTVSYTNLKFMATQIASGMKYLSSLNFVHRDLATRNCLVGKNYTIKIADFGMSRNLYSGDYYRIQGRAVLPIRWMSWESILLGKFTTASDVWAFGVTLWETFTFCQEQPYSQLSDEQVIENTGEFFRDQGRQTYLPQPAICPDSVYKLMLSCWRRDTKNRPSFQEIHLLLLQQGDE

FGFR3 = molecular target: T11, FGFR3 (Homo sapiens, UniProt P22607)
T11 construct: purchased CEREP Panlabs (Eurofins)

ERK2 = molecular target: T12, ERK2 (Homo sapiens, UniProt P28482)
T12 construct: purchased CEREP Panlabs (Eurofins)
T12 sequence (P28482 whole entry): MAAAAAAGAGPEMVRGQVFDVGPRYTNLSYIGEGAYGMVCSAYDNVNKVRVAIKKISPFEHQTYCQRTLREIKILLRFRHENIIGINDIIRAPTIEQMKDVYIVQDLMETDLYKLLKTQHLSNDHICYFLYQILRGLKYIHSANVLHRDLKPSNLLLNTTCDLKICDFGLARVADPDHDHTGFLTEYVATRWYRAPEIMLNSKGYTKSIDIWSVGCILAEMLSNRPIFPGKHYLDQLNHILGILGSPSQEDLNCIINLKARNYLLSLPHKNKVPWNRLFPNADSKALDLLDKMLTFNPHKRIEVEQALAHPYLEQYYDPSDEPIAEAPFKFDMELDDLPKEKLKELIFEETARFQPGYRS

T1 sequence (O96017 whole entry): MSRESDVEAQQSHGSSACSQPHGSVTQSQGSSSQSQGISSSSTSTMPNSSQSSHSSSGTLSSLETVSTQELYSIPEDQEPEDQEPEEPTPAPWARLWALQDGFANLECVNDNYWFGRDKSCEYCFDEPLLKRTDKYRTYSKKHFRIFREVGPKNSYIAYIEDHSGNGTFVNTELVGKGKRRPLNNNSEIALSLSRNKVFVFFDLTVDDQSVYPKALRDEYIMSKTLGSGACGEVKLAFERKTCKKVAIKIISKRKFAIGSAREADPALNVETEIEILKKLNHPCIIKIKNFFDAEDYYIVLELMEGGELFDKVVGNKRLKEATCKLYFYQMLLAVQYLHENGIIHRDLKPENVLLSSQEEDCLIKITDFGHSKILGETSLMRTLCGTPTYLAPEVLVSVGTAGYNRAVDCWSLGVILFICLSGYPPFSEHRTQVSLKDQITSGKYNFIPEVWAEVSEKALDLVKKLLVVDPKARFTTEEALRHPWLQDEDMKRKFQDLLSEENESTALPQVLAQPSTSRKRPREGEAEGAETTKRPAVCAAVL

In the case of `O=c1[nH]ccc2cc(F)c(NS(=O)(=O)c3ccc(N4CC[C@@H](O)C4)s3)cc12` [LSN3213128, N-(6-Fluoro-1-oxo-1,2-dihydroisoquinolin-7-yl)-5-[(3R)-3-hydroxypyrrolidin-1-yl]thiophene-2-sulfonamide], the inhibition at 0.2 µM (CHK2; @ 0.2 uM) is reported as -9.59%, the inhibition at 2 µM (CHK2; @ 2 uM) is reported as 14.3% and the inhibition at 20 µM (CHK2; @ 20 uM) is reported as 8.93%. It also gave an inhibition at 0.2 µM (P38a; @ 0.2 uM) of -2.24%, an inhibition at 2 µM (P38a; @ 2 uM) of -2.52% and an inhibition at 20 µM (P38a; @ 20 uM) of 32.3%. It also gave an inhibition at 0.2 µM (RSK3; @ 0.2 uM) of -5.85%, an inhibition at 2 µM (RSK3; @ 2 uM) of -1.32% and an inhibition at 20 µM (RSK3; @ 20 uM) of 9.07%. The inhibition at 0.2 µM (ERK1; @ 0.2 uM) was -2.6%, the inhibition at 2 µM (ERK1; @ 2 uM) was 9.15% and the inhibition at 20 µM (ERK1; @ 20 uM) was 53.7%. It also gave an inhibition at 0.2 µM (EPHB2; @ 0.2 uM) of -14.3%, an inhibition at 2 µM (EPHB2; @ 2 uM) of 8.96% and an inhibition at 20 µM (EPHB2; @ 20 uM) of 12%. It also gave an inhibition at 0.2 µM (IRAK1; @ 0.2 uM) of -0.781%, an inhibition at 2 µM (IRAK1; @ 2 uM) of 4.26% and an inhibition at 20 µM (IRAK1; @ 20 uM) of 42.2%. It also gave an inhibition at 0.2 µM (JAK1; @ 0.2 uM) of -1.48%, an inhibition at 2 µM (JAK1; @ 2 uM) of 5.53% and an inhibition at 20 µM (JAK1; @ 20 uM) of 46.6%. It also gave an inhibition at 0.2 µM (AKT3; @ 0.2 uM) of -0.699%, an inhibition at 2 µM (AKT3; @ 2 uM) of 5.67% and an inhibition at 20 µM (AKT3; @ 20 uM) of 13%. The inhibition at 0.2 µM (MLK1; @ 0.2 uM) was -7.95%, the inhibition at 2 µM (MLK1; @ 2 uM) was 2.73% and the inhibition at 20 µM (MLK1; @ 20 uM) was 3.99%. It also gave an inhibition at 0.2 µM (DDR2; @ 0.2 uM) of -16.5%, an inhibition at 2 µM (DDR2; @ 2 uM) of -13.4% and an inhibition at 20 µM (DDR2; @ 20 uM) of -3.1%. The inhibition at 0.2 µM (FGFR3; @ 0.2 uM) was 3.62%, the inhibition at 2 µM (FGFR3; @ 2 uM) was 13.2% and the inhibition at 20 µM (FGFR3; @ 20 uM) was 47%. It also gave an inhibition at 0.2 µM (ERK2; @ 0.2 uM) of -4.25%, an inhibition at 2 µM (ERK2; @ 2 uM) of 11.1% and an inhibition at 20 µM (ERK2; @ 20 uM) of 60.3%.
